Experimental data taken from patent US4731486A, “Hydroformylation using low volatile phosphine ligands” (Union Carbide Corporation, priority 1986, dated 1988).
Structures can show the parent of a compound that is named as a salt.

Tests used:
[1] = Solubility of metal salt ligands in nonanal with added solubilizing agent; type: physicochemical; conditions: 25° C., nonanal with 1:4 CARBOWAX TPEG-900/TERGITOL NP-9
[2] = Solubility of metal salt ligands in different aldehydes; type: physicochemical
[3] = Batch hydroformylation of propylene in stirred autoclave (Examples 1, 2, 11, 14, 19); conditions: 200 ppm Rh, about 120 mole equivalents ligand, 100° C., 90 psia 1:1:1 H2:CO:C3H6; for Linear/Branched Aldehyde Mole Ratio: Texanol/Carbowax PEG-600: Li 100:0, K 9:1, Rb 8:1, Ca 20:1, Ba 7:1; for Reaction Rate (C4 aldehydes): Texanol/Carbowax PEG-600: Li 100:0, K 9:1, Rb 8:1, Cs 7:1, Ca 20:1, Ba 7:1, Sr 18:1
Protocol: A series of various rhodium complex catalyst precursor solutions consisting essentially of the solubilized reaction product of rhodium dicarbonyl acetylacetonate and various monosulfonated triphenylphosphine metal salt ligands were prepared and employed to hydroformylate propylene into C4 aldehydes in the following manner.
Each rhodium catalytic precursor solution so prepared was then employed to hydroformylate propylene in a magnetically stirred, 100 mL capacity, stainless steel autoclave which was attached to a gas manifold for introducing gases to the desired partial pressures. The autoclave was also equipped with a pressure calibrator for determining reaction pressure to ±0.01 psia. and a platinum resistance thermometer for determining reactor solution temperatures to ±0.10° C. The reactor was heated externally by two 300 watt heating bands. The reactor solution temperature was controlled by a platinum resistance sensor connected to an external proportional temperature controller for controlling the temperature of the external band heaters.
In each non-aqueous hydroformylation reaction, about 15 milliliters (about 14 grams) of the rhodium catalytic precursor solution so prepared was charged to the autoclave reactor under nitrogen and heated to the reaction temperature employed (as given in Table 1 below). The reactor was then vented down to 5 psig. and a premixed gas mixture of 1:1:1 carbon monoxide:hydrogen:propylene was introduced into the reactor via the gas manifold (partial pressures given in Table 1) and the propylene so hydroformylated.
A comparison of the catalytic activity of aqueous and non-aqueous solutions of monosulfonated triphenylphosphine sodium salt ligand promoted catalysts in hydroformylating various molecular weight alphe-olefins was determined as follows.
Both the aqueous and non-aqueous hydroformylation reactions were conducted under identical conditions with regard to temperature, rhodium and ligand concentration, hydrogen and carbon monoxide partial pressure and olefin concentration.

[4] = Continuous single pass hydroformylation of butene-1 (Examples 3, 4, 5, 7, 12)
Protocol: Continuous hydroformylation of butene-1 a monosulfonated triphenylphosphine metal salt ligand was conducted in the following manner.
The non-aqueous hydroformylation was conducted in a glass reactor operating in a continuous single pass butene-1 hydroformylation mode. The reactor consisted of a three-ounce pressure bottle submersed in an oil bath with a lass front for viewing. About 20-mL of a freshly prepared rhodium catalytic precursor solution was charged to the reactor with a syringe, after purging the system with nitrogen. […] After closing the reactor, the system was again purged with nitrogen and the oil bath was heated to furnish the desired hydroformylation reaction temperature. The hydroformylation reaction was conducted at a total gas pressure of about 160 psig., the partial pressures of hydrogen, carbon monoxide, and butene-1 being given in Table 3 below, the remainder being nitrogen and aldehyde product.
The flows of the feed gases (carbon monoxide, hydrogen, butene-1 and nitrogen) were controlled individually with mass flow meters and the feed gases dispersed into the precursor solution via microporous stainless steel spargers. The unreacted portion of the feed gases was stripped out with the product C5 aldehydes and the outlet gas analyzed over about 12 days of continuous operation.

[5] = Continuous hydroformylation of propylene (Example 8); conditions: Texanol/PEG-600 8:1
[6] = Batch hydroformylation of dodecene-1 (Examples 13, 14, 18, 19); conditions: heptanal, 100° C., 200 ppm Rh, 60 psia 2:1 H2:CO
[7] = Texanol, day 0.8, 101 °C, CO 18, H2 48, C4H8 19
[8] = Texanol, day 4.0, 101 °C, CO 17, H2 52, C4H8 49
[9] = Texanol, day 6.0, 101 °C, CO 17, H2 52, C4H8 50
[10] = Texanol, day 6.9, 101 °C, CO 19, H2 50, C4H8 41
[11] = Texanol, day 8.0, […], CO 18, H2 56, C4H8 38
[12] = Texanol, day 9.0, […], CO 18, H2 57, C4H8 38
[13] = Texanol, day 10.0, […], CO 18, H2 57, C4H8 38
[14] = Texanol, day 10.7, […], CO 18, H2 57, C4H8 38
[15] = Texanol, day 11.6, 103 °C, CO 18, H2 57, C4H8 38
[16] = day 1.0, 99 °C, CO 33, H2 53, C3H6 17 psia
[17] = day 2.0, 106 °C, CO 28, H2 54, C3H6 18 psia
[18] = day 3.0, […], CO 23, H2 55, C3H6 19 psia
[19] = day 4.0, […], CO 23, H2 55, C3H6 19 psia
[20] = day 4.9, 104 °C, CO 23, H2 55, C3H6 19 psia
[21] = day 5.8, 103 °C, CO 23, H2 55, C3H6 20 psia
[22] = day 6.7, 98 °C, CO 24, H2 56, C3H6 20 psia
[23] = CARBOWAX PEG-600, two liquid organic layers
[24] = TERGITOL 15-S-7/Carbowax TPEG-990 (3:1)
[25] = TERGITOL 24-L-75N/CARBOWAX TPEG-990 (4:1)
[26] = Texanol/PEG-600 7:1, day 1.0, 101 °C, CO 18, H2 70, C4H8 11 psia
[27] = Texanol/PEG-600 7:1, day 1.8, 101 °C, CO 16, H2 62, C4H8 14 psia
[28] = Texanol/PEG-600 7:1, day 5.0, 101 °C, CO 12, H2 66, C4H8 19 psia
[29] = Texanol/PEG-600 7:1, day 5.9, 101 °C, CO 13, H2 66, C4H8 20 psia
[30] = Texanol/PEG-600 7:1, day 6.9, 101 °C, CO 14, H2 62, C4H8 22 psia
[31] = Texanol/PEG-600 7:1, day 7.0 (so in the source), […], CO 18, H2 62, C4H8 22 psia
[32] = Texanol/PEG-600 7:1, day 7.9, 101 °C, CO 16, H2 55, C4H8 24 psia
[33] = Texanol/PEG-600 7:1, day 9.0, […], CO 18, H2 60, C4H8 23 psia
[34] = Texanol/PEG-600 7:1, day 11.0, […], CO 19, H2 63, C4H8 21 psia
[35] = Texanol/PEG-600 7:1, day 11.7, […], CO 20, H2 63, C4H8 21 psia
[36] = Texanol/PEG-600 7:1, day 12.6, 103 °C, CO 20, H2 63, C4H8 22 psia

O=S(=O)(O)c1cccc(P(c2ccccc2)c2ccccc2)c1 [TPPMS-Li, monosulfonated triphenylphosphine lithium salt]
Metal Salt Solubility ([1]; lithium salt): 12 Wt. %
Metal Salt Solubility ([2]; Butyraldehyde, 60 °C, lithium salt): 0.5 Wt. %
Metal Salt Solubility ([2]; Heptanal, 80 °C, lithium salt): < 0.7 Wt. %
Metal Salt Solubility ([2]; Nonanal, 80 °C, lithium salt): < 0.5 Wt. %
Metal Salt Solubility ([2]; Propionaldehyde, 35 °C, lithium salt): 8.8 Wt. %
Metal Salt Solubility ([2]; Tridecanal, 80 °C, lithium salt): < 0.5 Wt. %
Metal Salt Solubility ([2]; Valeraldehyde, 80 °C, lithium salt): < 0.5 Wt. %
Linear/Branched Aldehyde Mole Ratio ([3]; lithium salt): 6.3
Reaction Rate (C4 aldehydes) ([3]; lithium salt): 0.35 Gmoles/L/Hr
Linear/Branched Aldehyde Mole Ratio [4, 7]: 30.34
Rate (C5 aldehydes), daily average [4, 7]: 1.02 gmoles/L/Hr
Linear/Branched Aldehyde Mole Ratio [4, 8]: 11.20
Rate (C5 aldehydes), daily average [4, 8]: 1.25 gmoles/L/Hr
Rate (C5 aldehydes), daily average ([4]; Texanol, day 4.8, 101 °C, CO 17, H2 52, C4H8 50): 1.19 gmoles/L/Hr
Linear/Branched Aldehyde Mole Ratio [4, 9]: 2.98
Rate (C5 aldehydes), daily average [4, 9]: 1.27 gmoles/L/Hr
Linear/Branched Aldehyde Mole Ratio [4, 10]: 31.75
Rate (C5 aldehydes), daily average [4, 10]: 1.28 gmoles/L/Hr
Linear/Branched Aldehyde Mole Ratio [4, 11]: 40.30
Rate (C5 aldehydes), daily average [4, 11]: 1.28 gmoles/L/Hr
Linear/Branched Aldehyde Mole Ratio [4, 12]: 28.90
Rate (C5 aldehydes), daily average [4, 12]: 1.30 gmoles/L/Hr
Linear/Branched Aldehyde Mole Ratio [4, 13]: 29.63
Rate (C5 aldehydes), daily average [4, 13]: 1.27 gmoles/L/Hr
Linear/Branched Aldehyde Mole Ratio [4, 14]: 37.18
Rate (C5 aldehydes), daily average [4, 14]: 1.27 gmoles/L/Hr
Linear/Branched Aldehyde Mole Ratio [4, 15]: 30.18
Rate (C5 aldehydes), daily average [4, 15]: 1.21 gmoles/L/Hr

O=S(=O)(O)c1cccc(P(c2ccccc2)c2ccccc2)c1 [TPPMS-Rb, monosulfonated triphenylphosphine rubidium salt]
Linear/Branched Aldehyde Mole Ratio [5, 16]: 5.15
Rate (C4 aldehydes), daily average [5, 16]: 1.01 gmoles/L/Hr
Linear/Branched Aldehyde Mole Ratio [5, 17]: 6.19
Rate (C4 aldehydes), daily average [5, 17]: 1.24 gmoles/L/Hr
Linear/Branched Aldehyde Mole Ratio [5, 18]: 5.86
Rate (C4 aldehydes), daily average [5, 18]: 0.68 gmoles/L/Hr
Linear/Branched Aldehyde Mole Ratio [5, 19]: 6.04
Rate (C4 aldehydes), daily average [5, 19]: 0.58 gmoles/L/Hr
Linear/Branched Aldehyde Mole Ratio [5, 20]: 6.12
Rate (C4 aldehydes), daily average [5, 20]: 0.58 gmoles/L/Hr
Linear/Branched Aldehyde Mole Ratio [5, 21]: 6.45
Rate (C4 aldehydes), daily average [5, 21]: 0.58 gmoles/L/Hr
Linear/Branched Aldehyde Mole Ratio [5, 22]: 6.60
Rate (C4 aldehydes), daily average [5, 22]: 0.41 gmoles/L/Hr
Metal Salt Solubility [1]: 25 Wt. %
Metal Salt Solubility ([2]; Butyraldehyde, 60 °C): 1.4 Wt. %
Metal Salt Solubility ([2]; Heptanal, 80 °C): 3.8 Wt. %
Metal Salt Solubility ([2]; Nonanal, 80 °C): 0.9 Wt. %
Metal Salt Solubility ([2]; Propionaldehyde, 35 °C): 6.6 Wt. %
Metal Salt Solubility ([2]; Tridecanal, 80 °C): 0.5 Wt. %
Metal Salt Solubility ([2]; Valeraldehyde, 80 °C): 3.3 Wt. %
Linear/Branched Aldehyde Mole Ratio [3]: 5.6
Reaction Rate (C4 aldehydes) [3]: 0.70 Gmoles/L/Hr

O=S(=O)(O)c1cccc(P(c2ccccc2)c2ccccc2)c1 [TPPMS-Ba, monosulfonated triphenylphosphine barium salt]
Linear/Branched Aldehyde Mole Ratio [6, 23]: 10.0
Reaction Rate [6, 23]: 1.22 G moles/L/hr
Linear/Branched Aldehyde Mole Ratio [6, 24]: 9.4
Reaction Rate [6, 24]: 0.45 G moles/L/hr
Linear/Branched Aldehyde Mole Ratio [6, 25]: 10.9
Reaction Rate [6, 25]: 0.76 G moles/L/hr
Metal Salt Solubility [1]: 33 Wt. %
Metal Salt Solubility ([2]; Butyraldehyde, 60 °C): 0.6 Wt. %
Metal Salt Solubility ([2]; Heptanal, 80 °C): 0.2 Wt. %
Metal Salt Solubility ([2]; Nonanal, 80 °C): 0.2 Wt. %
Metal Salt Solubility ([2]; Propionaldehyde, 35 °C): 0.5 Wt. %
Metal Salt Solubility ([2]; Tridecanal, 80 °C): 0.3 Wt. %
Metal Salt Solubility ([2]; Valeraldehyde, 80 °C): 0.1 Wt. %
Linear/Branched Aldehyde Mole Ratio [3]: 4.1
Reaction Rate (C4 aldehydes) [3]: 1.43 Gmoles/L/Hr
Linear/Branched Aldehyde Mole Ratio [4, 26]: 6.91
Rate (C5 aldehydes), daily average [4, 26]: 2.07 gmoles/L/Hr
Linear/Branched Aldehyde Mole Ratio [4, 27]: 7.10
Rate (C5 aldehydes), daily average [4, 27]: 2.10 gmoles/L/Hr
Linear/Branched Aldehyde Mole Ratio [4, 28]: 7.12
Rate (C5 aldehydes), daily average [4, 28]: 2.51 gmoles/L/Hr
Linear/Branched Aldehyde Mole Ratio [4, 29]: 7.03
Rate (C5 aldehydes), daily average [4, 29]: 2.52 gmoles/L/Hr
Linear/Branched Aldehyde Mole Ratio [4, 30]: 6.32
Rate (C5 aldehydes), daily average [4, 30]: 2.71 gmoles/L/Hr
Linear/Branched Aldehyde Mole Ratio [4, 31]: 6.02
Rate (C5 aldehydes), daily average [4, 31]: 2.60 gmoles/L/Hr
Linear/Branched Aldehyde Mole Ratio [4, 32]: 6.16
Rate (C5 aldehydes), daily average [4, 32]: 2.71 gmoles/L/Hr
Linear/Branched Aldehyde Mole Ratio [4, 33]: 6.01
Rate (C5 aldehydes), daily average [4, 33]: 2.73 gmoles/L/Hr
Linear/Branched Aldehyde Mole Ratio [4, 34]: 6.20
Rate (C5 aldehydes), daily average [4, 34]: 2.46 gmoles/L/Hr
Linear/Branched Aldehyde Mole Ratio [4, 35]: 6.14
Rate (C5 aldehydes), daily average [4, 35]: 2.37 gmoles/L/Hr
Linear/Branched Aldehyde Mole Ratio [4, 36]: 5.85
Rate (C5 aldehydes), daily average [4, 36]: 2.30 gmoles/L/Hr
